Test results taken from ChEMBL document CHEMBL4359871, “Novel electrophilic amides amenable by the Ugi reaction perturb thioredoxin system via thioredoxin reductase 1 (TrxR1) inhibition: Identification of DVD-445 as a new lead compound for anticancer therapy” (Eur J Med Chem, 2019).
pIC50: −log10 of the molar value. Active and inactive are the calls of the source. No cut-off for these calls is given here.

Experiments:
[1] = target: T1, Thioredoxin reductase 1, cytoplasmic (Homo sapiens, UniProt Q16881); experiment: Inhibition of TrxR in human SH-SY5Y cells using DTNB as substrate preincubated for 15 mins followed by substrate addition and measured for 20 mins by Ellman's method; format: cell-based
T1 sequence (Q16881 whole entry): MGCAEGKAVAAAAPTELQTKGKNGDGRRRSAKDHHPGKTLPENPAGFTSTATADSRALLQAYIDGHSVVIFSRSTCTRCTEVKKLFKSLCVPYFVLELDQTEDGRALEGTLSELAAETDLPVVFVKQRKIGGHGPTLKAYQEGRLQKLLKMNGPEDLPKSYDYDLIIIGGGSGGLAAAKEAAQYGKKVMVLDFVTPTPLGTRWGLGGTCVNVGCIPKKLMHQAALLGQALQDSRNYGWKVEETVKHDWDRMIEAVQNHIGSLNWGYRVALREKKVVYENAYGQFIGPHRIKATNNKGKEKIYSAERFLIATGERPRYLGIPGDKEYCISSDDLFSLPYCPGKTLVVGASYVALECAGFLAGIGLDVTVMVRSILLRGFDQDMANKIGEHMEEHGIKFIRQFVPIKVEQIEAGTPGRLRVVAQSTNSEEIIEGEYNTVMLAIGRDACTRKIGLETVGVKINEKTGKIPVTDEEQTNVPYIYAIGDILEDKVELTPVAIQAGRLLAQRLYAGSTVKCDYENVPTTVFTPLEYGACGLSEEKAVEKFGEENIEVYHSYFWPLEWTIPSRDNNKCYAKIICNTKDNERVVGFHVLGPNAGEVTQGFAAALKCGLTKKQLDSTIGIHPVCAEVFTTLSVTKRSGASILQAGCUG

[2] = system: HaCaT; experiment: Induction of RNS generation in human HaCaT cells incubated for 24 hrs by DHR staining based flow cytometry; format: cell-based
[3] = target: T2, Thioredoxin reductase 1, cytoplasmic (Rattus norvegicus) (UniProt O89049); experiment: […] inhibition of rat TrxR1 using DTNB as substrate preincubated for 15 mins in presence of NADPH followed by substrate addition and measured for 20 mins by Ellman's method
T2 sequence (whole entry): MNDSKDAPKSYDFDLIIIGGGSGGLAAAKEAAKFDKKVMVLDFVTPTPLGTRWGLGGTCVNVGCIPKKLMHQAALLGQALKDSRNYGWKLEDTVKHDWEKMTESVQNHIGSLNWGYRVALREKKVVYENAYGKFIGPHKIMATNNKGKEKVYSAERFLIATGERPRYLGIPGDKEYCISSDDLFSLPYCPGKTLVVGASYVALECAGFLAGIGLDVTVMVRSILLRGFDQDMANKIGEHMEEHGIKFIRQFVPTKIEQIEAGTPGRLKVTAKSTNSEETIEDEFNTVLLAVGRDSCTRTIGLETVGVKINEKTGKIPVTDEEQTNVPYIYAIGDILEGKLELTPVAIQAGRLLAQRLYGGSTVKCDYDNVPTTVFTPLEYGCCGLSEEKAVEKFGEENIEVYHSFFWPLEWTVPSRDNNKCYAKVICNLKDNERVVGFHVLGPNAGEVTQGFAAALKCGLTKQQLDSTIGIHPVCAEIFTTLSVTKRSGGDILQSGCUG

[4] = system: SH-SY5Y; experiment: Induction of apoptosis in human SH-SY5Y cells assessed as viable cells incubated for 48 hrs by annexin V FITC and propidium iodide staining based flow cytometry (reference value: 92.44 %); format: functional
[5] = Induction of apoptosis in human HaCaT cells assessed as viable cells incubated for 48 hrs by annexin V FITC and propidium iodide staining based flow cytometry (reference value: 95.78 %); format: cell-based; settings: read-out: Activity
[6] = system: SH-SY5Y; experiment: Induction of apoptosis in human SH-SY5Y cells assessed as necrotic cells incubated for 48 hrs by annexin V FITC and propidium iodide staining based flow cytometry (reference value: 5.75 %); format: functional
[7] = system: SH-SY5Y; experiment: Induction of RNS generation in human SH-SY5Y cells incubated for 24 hrs by DHR staining based flow cytometry; format: functional
[8] = system: HaCaT; experiment: Induction of ROS generation in human HaCaT cells incubated for 24 hrs by DHE staining based flow cytometry; format: cell-based
[9] = system: SH-SY5Y; experiment: Induction of ROS generation in human SH-SY5Y cells incubated for 24 hrs by DHE staining based flow cytometry; format: functional, cell-based
[10] = system: U-87 MG; experiment: Induction of RNS generation in human U87 cells incubated for 24 hrs by DHR staining based flow cytometry; format: functional, cell-based; settings: U-87MG ATCC
[11] = system: HaCaT; experiment: Cytotoxicity against human HaCaT assessed as reduction in cell viability incubated for 72 hrs by MTT assay; format: cell-based
[12] = system: SH-SY5Y; experiment: Cytotoxicity against human SH-SY5Y cells assessed as reduction in cell viability incubated for 72 hrs by MTT assay; format: functional, cell-based
[13] = system: SH-SY5Y; experiment: Induction of apoptosis in human SH-SY5Y cells assessed as early apoptotic cells incubated for 48 hrs by annexin V FITC and propidium iodide staining based flow cytometry (reference value: 0.44 %); format: functional
[14] = system: U-87 MG; experiment: Cytotoxicity against human U87 cells assessed as reduction in cell viability incubated for 72 hrs by MTT assay; format: functional, cell-based, U-87MG ATCC
[15] = target: T3, Thioredoxin reductase 1, cytoplasmic (Rattus norvegicus, UniProt O89049); experiment: Inhibition of rat TrxR1 using DTNB as substrate preincubated for 15 mins followed by substrate addition and measured for 20 mins by Ellman's method
T3 sequence (O89049 whole entry): T2 sequence (whole entry)

[16] = system: HaCaT; experiment: Induction of apoptosis in human HaCaT cells assessed as early apoptotic cells incubated for 48 hrs by annexin V FITC and propidium iodide staining based flow cytometry (reference value: 0.02 %); format: cell-based
[17] = target: T1, Thioredoxin reductase 1, cytoplasmic; experiment: Inhibition of TrxR1 (unknown origin) using DTNB as substrate preincubated for 30 mins in presence of insulin followed by substrate addition by colorimetry
[18] = system: HaCaT; experiment: Induction of apoptosis in human HaCaT cells assessed as late apoptotic cells incubated for 48 hrs by annexin V FITC and propidium iodide staining based flow cytometry (reference value: 0.46 %); format: cell-based
[19] = system: HaCaT; experiment: Induction of apoptosis in human HaCaT cells assessed as necrotic cells incubated for 48 hrs by annexin V FITC and propidium iodide staining based flow cytometry (reference value: 2.74 %); format: cell-based
[20] = system: SH-SY5Y; experiment: Induction of apoptosis in human SH-SY5Y cells assessed as late apoptotic cells incubated for 48 hrs by annexin V FITC and propidium iodide staining based flow cytometry (reference value: 1.37 %); format: functional
[21] = system: PBMC; experiment: Cytotoxicity against human PBMC assessed as reduction in cell viability incubated for 72 hrs by MTT assay; format: cell-based
[22] = system: U-87 MG; experiment: Induction of ROS generation in human U87 cells incubated for 24 hrs by DHE staining based flow cytometry; format: functional, cell-based; settings: U-87MG ATCC

SMILES | pIC50 [1] | Activity [2] | inhibition [3] | Activity [4] | viability at 48 h [5] | Activity [6] | Activity [7] | Activity [8] | Activity [9] | Activity [10] | pIC50 [11] | pIC50 [12] | Activity [13] | pIC50 [14] | pIC50 [15] | Activity [16] | pIC50 [17] | Activity [18] | Activity [19] | Activity [20] | further results
Cc1ccc(C(=O)C[C@H]2C(=O)N(C3CCCCC3)[C@H](c3cccnc3)C(=O)N2Cc2ccccc2)cc1 (racemic) | < 3.70 |  |  |  |  |  |  |  |  |  |  |  |  |  |  |  |  |  |  |  | 
COc1ccccc1C(C(=O)NC1CCCCC1)N(C(=O)/C=C/C(=O)c1ccc(C)cc1)C1CCCCC1 (stereo unspecified) | 4.29 | Non-Toxic | Active | 57.22% | 89.1% | 41.62% | >=30% | Non-Toxic | inactive | inactive | 5.81 | 5.75 | 0.25% | 5.85 | 5.51 | 0.07% | 5.28 | 1.15% | 9.65% | 0.92% | pIC50 [21]: 5.79; Activity [22]: inactive
CCCCN(C(=O)/C=C/C(=O)c1ccc(F)cc1)C(C(=O)NCc1ccccc1)C(C)(C)C (stereo unspecified) | 4.52 |  |  |  |  |  |  |  |  |  |  |  |  |  |  |  |  |  |  |  | 
CN(CCOC(=O)/C=C/C(=O)c1ccc(F)cc1)C(C(=O)NC(C)(C)C)c1ccc(F)cc1 (stereo unspecified) | 5.14 | Non-Toxic | Active | 75.74% | 93.9% | 14.96% | inactive | Non-Toxic | inactive | inactive | 5.08 | 4.96 | 2.57% | 5.01 | 6.22 | 0.03% | 6.02 | 0.83% | 5.21% | 6.73% | pIC50 [21]: 4.25; Activity [22]: inactive
CC(C)(C)NC(=O)C(c1ccc(F)cc1)N(C(=O)/C=C/C(=O)c1ccc(F)cc1)C1CC1 (stereo unspecified) | 4.76 | Non-Toxic | Active | 86.76% | 94% | 11.11% | inactive | Non-Toxic | inactive | inactive | 5.97 | 6.25 | 0.6% | 6.10 | 6.03 | 0.07% | 6.09 | 0.77% | 5.21% | 1.54% | pIC50 [21]: 5.25; Activity [22]: inactive
Cc1ccc(C(=O)/C=C/C(=O)N(C2CC2)C(C(=O)NC2CCCCC2)c2ccc(F)cc2)cc1 (stereo unspecified) | 4.53 |  |  |  |  |  |  |  |  |  |  |  |  |  |  |  |  |  |  |  | 
Cc1ccc(C(=O)/C=C/C(=O)N(C2CC2)C(C(=O)NCc2ccccc2)c2ncc(C)cn2)cc1 (stereo unspecified) | 4.50 | Non-Toxic | Active | 81.45% | 91.7% | 14.54% | inactive | Non-Toxic | inactive | inactive | 5.26 | 5.31 | 1.1% | 4.82 | 5.38 | 0.07% | 5.18 | 1.06% | 7.18% | 2.91% | pIC50 [21]: 4.81; Activity [22]: inactive
